Assay results as given in patent publication US12583866B2, “Pyrido[2,3-b][1,4]oxazines or tetrahydropyrido[2,3-b][1,4]oxazepines as IAP antagonists” (BEIGENE, LTD., priority 2020, dated 2026).

Legend:
[1] = biological target: T1, recombinant human cIAP2-BIR3 protein (Homo sapiens, UniProt Q13489); assay: Recombinant human c-IAP2-BIR3 biochemical assay (HTRF, peptide displacement); details: 3.7 nM cIAP2-BIR3, 3.7 nM AbuRPF-K(5-Fam)-NH2 peptide, read-out: Protein binding IC50 (nM) c-IAP2
T1 construct: recombinant human cIAP2-BIR3 protein; purchased Reaction biology APT-11-372
Summary of the method: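 3.7 nM protein pre-incubated 1 h at room temperature with compounds (top 10 uM, 4-fold, 10 points) in 20 mM HEPES pH 7.5, 50 mM NaCl, 0.005% Tween-20, 1 mM DTT. Then 3.7 nM AbuRPF-K(5-Fam)-NH2 for 1 h, then anti-6His Tb cryptate 1 h. IC50 from 520/490 nm HTRF ratio, four-parameter logistic fit.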

[2] = biological target: T2, recombinant human XIAP-BIR3 protein (Homo sapiens, UniProt P98170); assay: Recombinant human XIAP-BIR3 biochemical assay (HTRF, peptide displacement); details: 3.7 nM XIAP-BIR3, 7.6 nM AbuRPF-K(5-Fam)-NH2 peptide, read-out: Protein binding IC50 (nM) XIAP
T2 construct: recombinant human XIAP-BIR3 protein; purchased Reaction biology APT-11-374
Summary of the method: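 3.7 nM His-tagged XIAP-BIR3 was preincubated 1 h RT with compound (top 10 µM, 4-fold, 10 points) in 20 mM HEPES pH 7.5, 50 mM NaCl, 0.005% Tween-20, 1 mM DTT. 7.6 nM AbuRPF-K(5-Fam)-NH2 peptide was then added, followed by anti-6His Tb cryptate, 1 h each. HTRF 520/490 nm ratio; four-parameter logistic IC50.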

[3] = biological target: T3, recombinant human cIAP1-BIR3 protein (Homo sapiens, UniProt Q13490); assay: Recombinant human c-IAP1-BIR3 biochemical assay (HTRF, peptide displacement); details: 1.2 nM cIAP1-BIR3, 3 nM AbuRPF-K(5-Fam)-NH2 peptide, read-out: Protein binding IC50 (nM) c-IAP1
T3 construct: recombinant human cIAP1-BIR3 protein; purchased Reaction biology APT-11-370
Summary of the method: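 1.2 nM cIAP1-BIR3 preincubated 1 h at room temperature with compound (10 points, 4-fold, top 10 uM) in 20 mM HEPES pH 7.5, 50 mM NaCl, 1 mM DTT; 3 nM AbuRPF-K(5-Fam)-NH2 then added for 1 h, then anti-6His Tb cryptate for 1 h. 520/490 nm ratio; IC50 by four-parameter logistic fit.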

T1 sequence (Q13489 238-349 limits assumed): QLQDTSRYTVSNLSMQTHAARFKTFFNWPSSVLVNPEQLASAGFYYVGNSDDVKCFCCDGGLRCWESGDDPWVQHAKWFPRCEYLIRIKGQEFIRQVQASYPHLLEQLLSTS
T3 sequence (Q13490 253-363 limits assumed): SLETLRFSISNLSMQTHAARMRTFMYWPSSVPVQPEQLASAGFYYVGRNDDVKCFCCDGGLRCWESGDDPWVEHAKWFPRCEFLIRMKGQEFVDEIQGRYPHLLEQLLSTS
T2 sequence (P98170 241-356 limits assumed): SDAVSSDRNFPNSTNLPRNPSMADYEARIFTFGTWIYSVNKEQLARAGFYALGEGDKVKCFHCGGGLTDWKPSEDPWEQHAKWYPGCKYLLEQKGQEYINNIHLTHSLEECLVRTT

Structure (SMILES)	IC50 [1] [nM]	IC50 [2] [nM]	IC50 [3] [nM]
C[C@@H]1CN(CC(=O)N2c3cc(Cc4ccc(F)cc4)c(CO)nc3OC[C@@H]2C)[C@@H](CN2[C@H](C)CN(C)C[C@H]2C)CN1 [Compound 105, 1-((S)-7-(4-fluorobenzyl)-6-(hydroxymethyl)-2-methyl-2,3-dihydro-1H-pyrido[2,3-b][1,4]oxazin-1-yl)-2-((2R,5R)-5-methyl-2-(((2R,6R)-2,4,6-trimethylpiperazin-1-yl)methyl)piperazin-1-yl)ethan-1-one]	0.35	11.3	0.28
CC(C)[C@H]1COc2ncc(Cc3ccc(F)cc3)cc2N1C(=O)CN1C[C@@H](C)NC[C@@H]1CN1CCOC[C@H]1C [Compound 47, 1-((S)-7-(4-fluorobenzyl)-2-isopropyl-2,3-dihydro-1H-pyrido[2,3-b][1,4]oxazin-1-yl)-2-((2R,5R)-5-methyl-2-(((R)-3-methylmorpholino)methyl)piperazin-1-yl)ethan-1-one]	1.43	84	0.57
C[C@@H]1CN(CC(=O)N2CCOc3ncc(Cc4ccc(F)cc4)cc32)[C@@H](CN2[C@H](C)COC[C@H]2C)CN1 [Compound 16, 2-((2R,5R)-2-(((3R,5R)-3,5-dimethylmorpholino)methyl)-5-methylpiperazin-1-yl)-1-(7-(4-fluorobenzyl)-2,3-dihydro-1H-pyrido[2,3-b][1,4]oxazin-1-yl)ethan-1-one]	0.85	8.4	0.34
C[C@@H]1CN(CC(=O)N2CCOc3nc(Br)c(Cc4ccc(F)cc4)cc32)[C@@H](CN2CCOC[C@H]2C)CN1 [Compound 4, 1-(6-bromo-7-(4-fluorobenzyl)-2,3-dihydro-1H-pyrido[2,3-b][1,4]oxazin-1-yl)-2-((2R,5R)-5-methyl-2-(((R)-3-methylmorpholino)methyl)piperazin-1-yl)ethan-1-one]	0.92	17	0.5
C[C@@H]1CN(CC(=O)N2c3cc(Cc4ccc(F)cc4)c(CN4CCOCC4)nc3OC[C@@H]2C)[C@@H](CN2[C@H](C)COC[C@H]2C)CN1 [Compound 92]	0.53	8.7	0.37
C[C@@H]1CN(CC(=O)N2c3cc(Cc4ccc(F)cc4)c(CO)nc3OC[C@@H]2C)[C@@H](CN2CCOC[C@@H]2C2CC2)CN1 [Example 84B]	1.6	46	0.78
C[C@@H]1CN(CC(=O)N2c3cc(Cc4ccc(F)cc4)c(C(N)=O)nc3OC[C@@H]2C)[C@@H](CN2CCOCC2(C)C)CN1 [Example 61, (S)-1-(2-((2R,5R)-2-((3,3-dimethylmorpholino)methyl)-5-methylpiperazin-1-yl)acetyl)-7-(4-fluorobenzyl)-2-methyl-2,3-dihydro-1H-pyrido[2,3-b][1,4]oxazine-6-carboxamide]	1.08	14	0.43
C[C@@H]1CN(CC(=O)N2CCOc3nc(C(F)(F)F)c(Cc4ccc(F)cc4)cc32)[C@@H](CN2CCOC[C@H]2C)CN1 [Compound 7, 1-(7-(4-fluorobenzyl)-6-(trifluoromethyl)-2,3-dihydro-1H-pyrido[2,3-b][1,4]oxazin-1-yl)-2-((2R,5R)-5-methyl-2-(((R)-3-methylmorpholino)methyl)piperazin-1-yl)ethan-1-one]	6.8	99	1.3
C[C@@H]1CN(CC(=O)N2c3cc(Cc4ccc(F)cc4)cnc3OC[C@@H]2C)[C@@H](CN2CCOC[C@H]2C)CN1 [Compound 19A, 1-((S)-7-(4-fluorobenzyl)-2-methyl-2,3-dihydro-1H-pyrido[2,3-b][1,4]oxazin-1-yl)-2-((2R,5R)-5-methyl-2-(((R)-3-methylmorpholino)methyl)piperazin-1-yl)ethan-1-one]	0.25	2.7	0.13
CC(=O)Nc1nc2c(cc1Cc1ccc(F)cc1)N(C(=O)CN1C[C@@H](C)NC[C@@H]1CN1[C@H](C)COC[C@H]1C)[C@@H](C)CO2 [Compound 116]	0.24	4.3	0.16
C[C@@H]1CN(CC(=O)N2c3cc(Cc4ccc(F)cc4)c(C(=O)N[C@H]4CCOC4)nc3OC[C@@H]2C)[C@@H](CN2[C@H](C)COC[C@H]2C)CN1 [Example 79, (S)-1-(2-((2R,5R)-2-(((3R,5R)-3,5-dimethylmorpholino)methyl)-5-methylpiperazin-1-yl)acetyl)-7-(4-fluorobenzyl)-2-methyl-N—((S)-tetrahydrofuran-3-yl)-2,3-dihydro-1H-pyrido[2,3-b][1,4]oxazine-6-carboxamide]	0.33	5.2	0.19
CNC(=O)c1nc2c(cc1Cc1ccc(F)cc1)N(C(=O)CN1C[C@@H](C)NC[C@@H]1CN1[C@H](C)COC[C@H]1C)[C@@H](C)CO2 [Example 68, (S)-1-(2-((2R,5R)-2-(((3R,5R)-3,5-dimethylmorpholino)methyl)-5-methylpiperazin-1-yl)acetyl)-7-(4-fluorobenzyl)-N,2-dimethyl-2,3-dihydro-1H-pyrido[2,3-b][1,4]oxazine-6-carboxamide]	0.41	5.5	0.23
C[C@@H]1CN(CC(=O)N2c3cc(Cc4ccc(F)cc4)c(CO)nc3OC[C@@H]2C)[C@@H](CN2CCOCC2(C)C)CN1 [Compound 48]	0.79	12	0.45
CCNC(=O)c1nc2c(cc1Cc1ccc(F)cc1)N(C(=O)CN1C[C@@H](C)NC[C@@H]1CN1[C@H](C)COC[C@H]1C)[C@@H](C)CO2 [Example 65, (S)-1-(2-((2R,5R)-2-(((3R,5R)-3,5-dimethylmorpholino)methyl)-5-methylpiperazin-1-yl)acetyl)-N-ethyl-7-(4-fluorobenzyl)-2-methyl-2,3-dihydro-1H-pyrido[2,3-b][1,4]oxazine-6-carboxamide]	0.44	4.4	0.22
CCNc1nc2c(cc1Cc1ccc(F)cc1)N(C(=O)CN1C[C@@H](C)NC[C@@H]1CN1[C@H](C)COC[C@H]1C)[C@@H](C)CO2 [Compound 111, 2-((2R,5R)-2-(((3R,5R)-3,5-dimethylmorpholino)methyl)-5-methylpiperazin-1-yl)-1-((S)-6-(ethylamino)-7-(4-fluorobenzyl)-2-methyl-2,3-dihydro-1H-pyrido[2,3-b][1,4]oxazin-1-yl)ethan-1-one]	0.7	13.9	0.25
COC[C@H]1COc2ncc(Cc3ccc(F)cc3)cc2N1C(=O)CN1C[C@@H](C)NC[C@@H]1CN1[C@H](C)COC[C@H]1C [Compound 34, 2-((2R,5R)-2-(((3R,5R)-3,5-dimethylmorpholino)methyl)-5-methylpiperazin-1-yl)-1-((S)-7-(4-fluorobenzyl)-2-(methoxymethyl)-2,3-dihydro-1H-pyrido[2,3-b][1,4]oxazin-1-yl)ethan-1-one]	0.32	23	0.25
C[C@@H]1CN(CC(=O)N2c3cc(Cc4ccc(F)cc4)c(C(=O)NCC4CCOCC4)nc3OC[C@@H]2C)[C@@H](CN2[C@H](C)COC[C@H]2C)CN1 [Example 77, (S)-1-(2-((2R,5R)-2-(((3R,5R)-3,5-dimethylmorpholino)methyl)-5-methylpiperazin-1-yl)acetyl)-7-(4-fluorobenzyl)-2-methyl-N-((tetrahydro-2H-pyran-4-yl)methyl)-2,3-dihydro-1H-pyrido[2,3-b][1,4]oxazine-6-carboxamide]	0.28	2.6	0.2
C[C@@H]1CN(CC(=O)N2c3cc(Cc4ccc(F)cc4)c(C(=O)N4CC[C@H](F)C4)nc3OC[C@@H]2C)[C@@H](CN2[C@H](C)COC[C@H]2C)CN1 [Compound 100, 2-((2R,5R)-2-(((3R,5R)-3,5-dimethylmorpholino)methyl)-5-methylpiperazin-1-yl)-1-((S)-7-(4-fluorobenzyl)-6-((S)-3-fluoropyrrolidine-1-carbonyl)-2-methyl-2,3-dihydro-1H-pyrido[2,3-b][1,4]oxazin-1-yl)ethan-1-one]	0.44	4.2	0.17
C[C@@H]1CN(CC(=O)N2CCOc3ncc(Cc4ccc(F)cc4)cc32)[C@@H](CN2C[C@H]3C[C@@H]2CO3)CN1 [Compound 14]	9.8	122	3.6
